Test results taken from patent publication US20240034737A1, “Heterocyclic Derivatives as P2X7 Receptor Antagonists” (BREYE THERAPEUTICS APS, priority 2020, published 2024).

What was measured:
P2X7 receptor = P2X7 receptor (Homo sapiens (Human), UniProt Q99572); test: Human P2X7 channel calcium-influx assay (Fluo-8 NW, FLIPR TETRA, Bz-ATP stimulation); format: cell-based; conditions: HEK-293 cells stably transfected with P2X7 receptor, Low Divalent Cation Assay Buffer, read-out: hP2X7 IC50
Description: (§1) Extracellular binding of Bz-ATP to P2X7 receptor opens the channel and allows Ca^2+ influx into the cells. This Ca^2+ entry was measured in HEK-293 cells stably transfected with P2X7 receptor using Screen Quest™ Fluo-8 No Wash Calcium Assay Kit (AAt Bioquest®, cat. 36316). Once inside the cell, the lipophilic blocking groups of Fluo-8 are cleaved by non-specific cell esterases, resulting in a negatively-charged fluorescent dye that stays inside cells. Its fluorescence increases upon binding to calcium. When HEK-293/P2X7 cells are stimulated with Bz-ATP, Ca^2+ enters the cells and the fluorescence of Fluo-8 NW increases.
(§2) HEK-293 cells stably transfected with P2X7 receptor were seeded overnight in growth medium at 10,000 to 20,000 cells/well in 384-well plate. 24 hours later, the medium was removed, and the cells were pre-loaded at RT for 1 hour with 20 μL/w of Fluo-8 NW. Then 10 μL/w of test compounds and reference antagonist A438079 at 3X-concentration were injected with the […] and the kinetic response over a period of five minutes was monitored.

mP2X7 = mP2X7 (Mus musculus (Mouse), UniProt Q9Z1M0); test: mP2X7 channel calcium-influx assay (Fluo-8 NW, FLIPR TETRA, Bz-ATP stimulation); format: cell-based
mP2X7, sequence (Q9Z1M0 whole entry): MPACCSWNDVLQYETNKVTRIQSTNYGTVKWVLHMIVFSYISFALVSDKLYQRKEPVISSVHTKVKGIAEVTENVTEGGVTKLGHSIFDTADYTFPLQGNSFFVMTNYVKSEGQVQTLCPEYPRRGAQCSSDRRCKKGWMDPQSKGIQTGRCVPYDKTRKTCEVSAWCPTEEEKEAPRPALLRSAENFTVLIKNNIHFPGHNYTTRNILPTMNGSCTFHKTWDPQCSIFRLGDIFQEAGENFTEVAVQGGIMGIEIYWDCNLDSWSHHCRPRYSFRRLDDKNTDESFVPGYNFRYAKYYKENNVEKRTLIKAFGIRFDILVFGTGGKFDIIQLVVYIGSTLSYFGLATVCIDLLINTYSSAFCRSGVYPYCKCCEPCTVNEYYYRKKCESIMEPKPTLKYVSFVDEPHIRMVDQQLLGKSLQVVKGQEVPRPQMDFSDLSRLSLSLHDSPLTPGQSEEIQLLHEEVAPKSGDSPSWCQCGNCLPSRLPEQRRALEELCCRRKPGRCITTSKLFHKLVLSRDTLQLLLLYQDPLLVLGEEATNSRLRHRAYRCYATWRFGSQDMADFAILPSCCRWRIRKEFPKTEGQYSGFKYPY
Description: as §1, §2

P2X7 receptor, sequence (Q99572 whole entry): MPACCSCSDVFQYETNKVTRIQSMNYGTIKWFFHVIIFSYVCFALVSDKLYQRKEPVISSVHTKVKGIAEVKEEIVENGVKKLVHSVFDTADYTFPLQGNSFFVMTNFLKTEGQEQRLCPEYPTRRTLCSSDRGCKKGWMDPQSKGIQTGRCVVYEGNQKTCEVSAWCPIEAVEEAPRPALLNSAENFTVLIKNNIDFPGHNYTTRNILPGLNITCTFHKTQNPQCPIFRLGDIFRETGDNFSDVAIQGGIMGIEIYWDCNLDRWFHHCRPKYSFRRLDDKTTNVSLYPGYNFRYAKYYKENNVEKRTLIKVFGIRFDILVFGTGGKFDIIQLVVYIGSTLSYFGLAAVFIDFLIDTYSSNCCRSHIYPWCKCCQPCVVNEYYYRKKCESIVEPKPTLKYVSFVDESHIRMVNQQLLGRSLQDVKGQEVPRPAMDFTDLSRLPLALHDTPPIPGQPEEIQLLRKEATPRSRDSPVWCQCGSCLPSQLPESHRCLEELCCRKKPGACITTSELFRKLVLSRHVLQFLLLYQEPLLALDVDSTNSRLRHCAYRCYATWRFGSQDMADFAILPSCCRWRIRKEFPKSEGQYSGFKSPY

Structure (SMILES)	IC50 (P2X7 receptor)	IC50 (mP2X7)
O=C(NCC(c1scnc1C(F)F)N1CCC(Oc2ccccn2)CC1)c1c(F)cccc1Cl (stereo not drawn) [Example 1, 2-chloro-N-{2-[4-(difluoromethyl)-1,3-thiazol-5-yl]-2-[4-(pyridin-2-yloxy)piperidin-1-yl]ethyl}-6-fluorobenzamide]	21.7 nM	53.5 nM
N#Cc1nccnc1OC1CCN(C(CNC(=O)c2c(F)cccc2Cl)c2scnc2C(F)F)CC1 (stereo not drawn) [Example 17, 2-Chloro-N-(2-{4-[(3-cyanopyrazin-2-yl)oxy]piperidin-1-yl}-2-[4-(difluoromethyl)-1,3-thiazol-5-yl]ethyl)-6-fluorobenzamide]	55 nM	320 nM
O=C(NCC(c1scnc1C(F)F)N1CCC(Oc2nc3ccccc3o2)CC1)c1c(F)cccc1Cl (stereo not drawn) [Example 22, N-{2-[4-(1,3-Benzoxazol-2-yloxy)piperidin-1-yl]-2-[4-(difluoromethyl)-1,3-thiazol-5-yl]ethyl}-2-chloro-6-fluorobenzamide]	20.5 nM	12.3 nM
Cc1cnc(OC2CCN(C(CNC(=O)c3c(F)cccc3Cl)c3scnc3C(F)F)CC2)nc1 (stereo not drawn) [Example 28, 2-Chloro-N-{2-[4-(difluoromethyl)-1,3-thiazol-5-yl]-2-{4-[(5-methylpyrimidin-2-yl)oxy]piperidin-1-yl}ethyl}-6-fluorobenzamide]	64.4 nM	206 nM
Cc1ccc(OC2CCN(C(CNC(=O)c3c(F)cccc3Cl)c3scnc3C(F)F)CC2)nn1 (stereo not drawn) [Example 29, 2-Chloro-N-{2-[4-(difluoromethyl)-1,3-thiazol-5-yl]-2-{4-[(6-methylpyridazin-3-yl)oxy]piperidin-1-yl}ethyl}-6-fluorobenzamide]	31.7 nM	87.6 nM
O=C(NCC(c1scnc1C(F)F)N1CCC(Oc2cc(F)ncn2)CC1)c1c(F)cccc1Cl (stereo not drawn) [Example 31, 2-Chloro-N-{2-[4-(difluoromethyl)-1,3-thiazol-5-yl]-2-{4-[(6-fluoropyrimidin-4-yl)oxy]piperidin-1-yl}ethyl}-6-fluorobenzamide]	61.2 nM	136 nM
O=C(NCC(c1scnc1C(F)F)N1CCC(Oc2nccnc2F)CC1)c1c(F)cccc1Cl (stereo not drawn) [Example 34, 2-Chloro-N-{2-[4-(difluoromethyl)-1,3-thiazol-5-yl]-2-{4-[(3-fluoropyrazin-2-yl)oxy]piperidin-1-yl}ethyl}-6-fluorobenzamide]	55.5 nM	174 nM
O=C(NCC(c1scnc1C(F)F)N1CCC(Oc2ccnc(F)n2)CC1)c1c(F)cccc1Cl (stereo not drawn) [Example 35, 2-Chloro-N-{2-[4-(difluoromethyl)-1,3-thiazol-5-yl]-2-{4-[(2-fluoropyrimidin-4-yl)oxy]piperidin-1-yl}ethyl}-6-fluorobenzamide]	71.1 nM	190 nM
Cc1nc(F)cc(OC2CCN(C(CNC(=O)c3c(F)cccc3Cl)c3scnc3C(F)F)CC2)n1 (stereo not drawn) [Example 39, 2-Chloro-N-{2-[4-(difluoromethyl)-1,3-thiazol-5-yl]-2-{4-[(6-fluoro-2-methylpyrimidin-4-yl)oxy]piperidin-1-yl}ethyl}-6-fluorobenzamide]	51.1 nM	44.6 nM
Cc1c(F)ncnc1OC1CCN(C(CNC(=O)c2c(F)cccc2Cl)c2scnc2C(F)F)CC1 (stereo not drawn) [Example 40, 2-Chloro-N-{2-[4-(difluoromethyl)-1,3-thiazol-5-yl]-2-{4-[(6-fluoro-5-methylpyrimidin-4-yl)oxy]piperidin-1-yl}ethyl}-6-fluorobenzamide]	32.7 nM	50.6 nM
O=C(NCC(c1scnc1C(F)F)N1CCC(Oc2cc(C(F)(F)F)ncn2)CC1)c1c(F)cccc1Cl (stereo not drawn) [Example 43, 2-Chloro-N-{2-[4-(difluoromethyl)-1,3-thiazol-5-yl]-2-(4-{[6-(trifluoromethyl)pyrimidin-4-yl]oxy}piperidin-1-yl)ethyl}-6-fluorobenzamide]	69.2 nM	63.9 nM

Other lines, results leading:

IC50 (P2X7 receptor)	IC50 (mP2X7)	Structure (SMILES)
58.2 nM	408 nM	O=C(NCC(c1scnc1C(F)F)N1CCC(Oc2ncccn2)CC1)c1c(F)cccc1Cl (stereo not drawn) [Example 4, 2-chloro-N-{2-[4-(difluoromethyl)-1,3-thiazol-5-yl]-2-[4-(pyrimidin-2-yloxy)piperidin-1-yl]ethyl}-6-fluorobenzamide]
49.9 nM	69.7 nM	O=C(NCC(c1scnc1C(F)F)N1CCC(Oc2ccncc2F)CC1)c1c(F)cccc1Cl (stereo not drawn) [Example 6, 2-chloro-N-{2-[4-(difluoromethyl)-1,3-thiazol-5-yl]-2-{4-[(3-fluoropyridin-4-yl)oxy]piperidin-1-yl}ethyl}-6-fluorobenzamide]
23.5 nM	191 nM	O=C(NCC(c1scnc1C(F)F)N1CCC(Oc2nccs2)CC1)c1c(F)cccc1Cl (stereo not drawn) [Example 10, 2-chloro-N-{2-[4-(difluoromethyl)-1,3-thiazol-5-yl]-2-[4-(1,3-thiazol-2-yloxy)piperidin-1-yl]ethyl}-6-fluorobenzamide]
11.8 nM	43.9 nM	O=C(NCC(c1scnc1C(F)F)N1CCC(Oc2nc(Cl)cs2)CC1)c1c(F)cccc1Cl (stereo not drawn) [Example 12, 2-Chloro-N-(2-{4-[(4-chloro-1,3-thiazol-2-yl)oxy]piperidin-1-yl}-2-[4-(difluoromethyl)-1,3-thiazol-5-yl]ethyl)-6-fluorobenzamide]
56.9 nM	68.3 nM	N#Cc1cncc(OC2CCN(C(CNC(=O)c3c(F)cccc3Cl)c3scnc3C(F)F)CC2)c1 (stereo not drawn) [Example 16, 2-Chloro-N-(2-{4-[(5-cyanopyridin-3-yl)oxy]piperidin-1-yl}-2-[4-(difluoromethyl)-1,3-thiazol-5-yl]ethyl)-6-fluorobenzamide]
41.1 nM	186 nM	N#Cc1ncccc1OC1CCN(C(CNC(=O)c2c(F)cccc2Cl)c2scnc2C(F)F)CC1 (stereo not drawn) [Example 18, 2-Chloro-N-(2-{4-[(2-cyanopyridin-3-yl)oxy]piperidin-1-yl}-2-[4-(difluoromethyl)-1,3-thiazol-5-yl]ethyl)-6-fluorobenzamide]
17.5 nM	14 nM	O=C(NCC(c1scnc1C(F)F)N1CCC(Oc2nc3ccccc3s2)CC1)c1c(F)cccc1Cl (stereo not drawn) [Example 20, N-{2-[4-(1,3-Benzothiazol-2-yloxy)piperidin-1-yl]-2-[4-(difluoromethyl)-1,3-thiazol-5-yl]ethyl}-2-chloro-6-fluorobenzamide]
73.6 nM	183 nM	COCCc1nsc(OC2CCN(C(CNC(=O)c3c(F)cccc3Cl)c3scnc3C(F)F)CC2)n1 (stereo not drawn) [Example 23, 2-Chloro-N-{2-[4-(difluoromethyl)-1,3-thiazol-5-yl]-2-(4-{[3-(2-methoxyethyl)-1,2,4-thiadiazol-5-yl]oxy}piperidin-1-yl)ethyl}-6-fluorobenzamide]
98.1 nM	32.4 nM	O=C(NCC(c1scnc1C(F)F)N1CCC(Oc2nc(-c3ccccc3)no2)CC1)c1c(F)cccc1Cl (stereo not drawn) [Example 24, 2-Chloro-N-{2-[4-(difluoromethyl)-1,3-thiazol-5-yl]-2-{4-[(3-phenyl-1,2,4-oxadiazol-5-yl)oxy]piperidin-1-yl}ethyl}-6-fluorobenzamide]
57.7 nM	45.8 nM	O=C(NCC(c1scnc1C(F)F)N1CCC(Oc2nnnn2-c2ccccc2)CC1)c1c(F)cccc1Cl (stereo not drawn) [Example 25, 2-Chloro-N-{2-[4-(difluoromethyl)-1,3-thiazol-5-yl]-2-{4-[(1-phenyl-1H-1,2,3,4-tetrazol-5-yl)oxy]piperidin-1-yl}ethyl}-6-fluorobenzamide]
17.3 nM	24 nM	O=C(NCC(c1scnc1C(F)F)N1CCC(Oc2ccc(F)cn2)CC1)c1c(F)cccc1Cl (stereo not drawn) [Example 30, 2-Chloro-N-{2-[4-(difluoromethyl)-1,3-thiazol-5-yl]-2-{4-[(5-fluoropyridin-2-yl)oxy]piperidin-1-yl}ethyl}-6-fluorobenzamide]
39.9 nM	52.5 nM	O=C(NCC(c1scnc1C(F)F)N1CCC(Oc2cncc(F)n2)CC1)c1c(F)cccc1Cl (stereo not drawn) [Example 33, 2-Chloro-N-{2-[4-(difluoromethyl)-1,3-thiazol-5-yl]-2-{4-[(6-fluoropyrazin-2-yl)oxy]piperidin-1-yl}ethyl}-6-fluorobenzamide]
53.8 nM	126 nM	N#Cc1cccnc1OC1CCN(C(CNC(=O)c2c(F)cccc2Cl)c2scnc2C(F)F)CC1 (stereo not drawn) [Example 36, 2-Chloro-N-(2-{4-[(3-cyanopyridin-2-yl)oxy]piperidin-1-yl}-2-[4-(difluoromethyl)-1,3-thiazol-5-yl]ethyl)-6-fluorobenzamide]
28 nM	28.5 nM	N#Cc1cccc(OC2CCN(C(CNC(=O)c3c(F)cccc3Cl)c3scnc3C(F)F)CC2)n1 (stereo not drawn) [Example 37, 2-Chloro-N-(2-{4-[(6-cyanopyridin-2-yl)oxy]piperidin-1-yl}-2-[4-(difluoromethyl)-1,3-thiazol-5-yl]ethyl)-6-fluorobenzamide]
57.5 nM	79.6 nM	N#Cc1ccncc1OC1CCN(C(CNC(=O)c2c(F)cccc2Cl)c2scnc2C(F)F)CC1 (stereo not drawn) [Example 38, 2-Chloro-N-(2-{4-[(4-cyanopyridin-3-yl)oxy]piperidin-1-yl}-2-[4-(difluoromethyl)-1,3-thiazol-5-yl]ethyl)-6-fluorobenzamide]
60.8 nM	108 nM	O=C(NCC(c1scnc1C(F)F)N1CCC(Oc2nccc(C(F)(F)F)n2)CC1)c1c(F)cccc1Cl (stereo not drawn) [Example 42, 2-Chloro-N-{2-[4-(difluoromethyl)-1,3-thiazol-5-yl]-2-(4-{[4-(trifluoromethyl)pyrimidin-2-yl]oxy}piperidin-1-yl)ethyl}-6-fluorobenzamide]
